In ChEMBL document CHEMBL4610129, “Discovery of Novel Selective and Orally Bioavailable Phosphodiesterase-1 Inhibitors for the Efficient Treatment of Idiopathic Pulmonary Fibrosis” (J Med Chem, 2020):
Converted amounts (≈) assume the structure as drawn. The source made the active and inactive calls. No cut-off for these calls is given here.

Legend:
[1] = Half life in Sprague-Dawley rat at 5 mg/kg, po; assay type: ADME, organism-based; settings: in vivo
[2] = MRT (0 to t) in Sprague-Dawley rat at 5 mg/kg, po; assay type: ADME, organism-based; settings: in vivo
[3] = target: cGMP-specific 3',5'-cyclic phosphodiesterase (Homo sapiens, UniProt O76074); experiment: Inhibition of PDE5A1 (535 to 860 residues) (unknown origin) using [3H]-cGMP substrate incubated for 15 mins by liquid scintillation counting method relative to control
[4] = AUC (0 to t) in Sprague-Dawley rat at 5 mg/kg, po; assay type: ADME, organism-based; settings: in vivo
[5] = MRT (0 to t) in Sprague-Dawley rat at 2.5 mg/kg, iv; assay type: ADME, organism-based; settings: in vivo
Homo sapiens [6] = organism: Homo sapiens; experiment: Anti-pulmonary fibrosis activity in human HLF assessed as reduction in TGF-beta-induced myofibroblast differentiation by measuring reduction in fibronectin protein expression incubated for 48 hrs by immunofluorescence staining analysis; assay type: functional
[7] = target: Voltage-gated inwardly rectifying potassium channel KCNH2 (Homo sapiens, UniProt Q12809); experiment: Inhibition of human ERG
Rattus norvegicus [8] = experiment: Anti-pulmonary fibrosis activity in Sprague-Dawley rat model of BLM-induced idiopathic pulmonary fibrosis assessed as reduction in peak expiratory flow at 10 mg/kg, po dosed daily for 28 days by mka noninvasive pulmonary monitoring system based method; assay type: functional, organism-based
[9] = AUC (0 to infinity) in Sprague-Dawley rat at 5 mg/kg, po; assay type: ADME, organism-based; parameters: dose 5 mg/kg, time infinity, route oral; settings: in vivo
[10] = Oral bioavailability in Sprague-Dawley rat at 5 mg/kg; assay type: ADME, organism-based; settings: in vivo
[11] = target: High affinity 3',5'-cyclic-AMP phosphodiesterase 7A (Homo sapiens, UniProt Q13946); experiment: Inhibition of PDE7A1 (130 to 482 residues) (unknown origin) using [3H]-cAMP substrate incubated for 15 mins by liquid scintillation counting method relative to control
Cytochrome P450 2D6 = Cytochrome P450 2D6 (Homo sapiens, UniProt P10635); experiment: Inhibition of human CYP2D6; assay type: ADME
Rattus norvegicus [12] = experiment: Anti-pulmonary fibrosis activity in Sprague-Dawley rat model of BLM-induced idiopathic pulmonary fibrosis assessed as reduction in mid-expiratory flow at 10 mg/kg, po dosed daily for 28 days by mka noninvasive pulmonary monitoring system based method; assay type: functional, organism-based
[13] = AUC (0 to infinity) in Sprague-Dawley rat at 2.5 mg/kg, iv; assay type: ADME, organism-based; parameters: dose 2.5 mg/kg, time infinity, route intravenous; settings: in vivo
Rattus norvegicus [14] = experiment: Anti-pulmonary fibrosis activity in Sprague-Dawley rat model of BLM-induced idiopathic pulmonary fibrosis assessed as reduction in lung structural damage at 10 mg/kg, po dosed daily for 28 days by H and E staining based assay; assay type: functional, organism-based
Cytochrome P450 1A2 = target: T1, Cytochrome P450 1A2 (Homo sapiens, UniProt P05177); experiment: Inhibition of human CYP1A2; assay type: ADME
T1 sequence (P05177 whole entry): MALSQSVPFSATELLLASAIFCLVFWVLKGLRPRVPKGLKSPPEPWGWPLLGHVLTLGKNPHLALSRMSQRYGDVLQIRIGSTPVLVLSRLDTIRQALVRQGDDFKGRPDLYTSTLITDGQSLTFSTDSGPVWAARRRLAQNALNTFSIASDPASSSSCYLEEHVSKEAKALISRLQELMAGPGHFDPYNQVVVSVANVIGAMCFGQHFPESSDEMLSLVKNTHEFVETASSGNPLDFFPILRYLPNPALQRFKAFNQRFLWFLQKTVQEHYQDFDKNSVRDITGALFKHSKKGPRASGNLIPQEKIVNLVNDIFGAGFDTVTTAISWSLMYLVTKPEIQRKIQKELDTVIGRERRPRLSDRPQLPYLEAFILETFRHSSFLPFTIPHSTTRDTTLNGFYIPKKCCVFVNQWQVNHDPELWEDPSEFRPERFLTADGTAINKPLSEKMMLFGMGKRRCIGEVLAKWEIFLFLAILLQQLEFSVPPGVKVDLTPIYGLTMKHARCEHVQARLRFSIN

[15] = target: High affinity cAMP-specific and IBMX-insensitive 3',5'-cyclic phosphodiesterase 8A (Homo sapiens, UniProt O60658); experiment: Inhibition of PDE8A1 (480 to 820 residues) (unknown origin) using [3H]-cAMP substrate incubated for 15 mins by liquid scintillation counting method relative to control
Rattus norvegicus [16] = experiment: Anti-pulmonary fibrosis activity in Sprague-Dawley rat model of BLM-induced idiopathic pulmonary fibrosis assessed as reduction in end-expiratory pause at 10 mg/kg, po dosed daily for 28 days by mka noninvasive pulmonary monitoring system based method; assay type: functional, organism-based
[17] = Solubility in pH 7.3 solution by HPLC analysis; assay type: physicochemical
Cytochrome P450 3A4 = Cytochrome P450 3A4 (Homo sapiens, UniProt P08684); experiment: Inhibition of human CYP3A4 using testosterone as substrate; assay type: ADME
Rattus norvegicus [18] = experiment: Anti-pulmonary fibrosis activity in Sprague-Dawley rat model of BLM-induced idiopathic pulmonary fibrosis assessed as inhibition of collagen deposition at 10 mg/kg, po dosed daily for 28 days by Masson staining based assay; assay type: functional, organism-based
[19] = Half life in human liver microsomes; assay type: ADME, Microsome
Rattus norvegicus [20] = experiment: Anti-pulmonary fibrosis activity in Sprague-Dawley rat model of BLM-induced idiopathic pulmonary fibrosis assessed as reduction in enhanced pause at 10 mg/kg, po dosed daily for 28 days by mka noninvasive pulmonary monitoring system based method; assay type: functional, organism-based
[21] = Solubility in pH 6 solution by HPLC analysis; assay type: physicochemical
Cytochrome P450 2C9 = Cytochrome P450 2C9 (Homo sapiens, UniProt P11712); experiment: Inhibition of human CYP2C9; assay type: ADME
[22] = Unbound fraction in human plasma; assay type: ADME, cell-free
[23] = target: cGMP-inhibited 3',5'-cyclic phosphodiesterase 3A (Homo sapiens, UniProt Q14432); experiment: Inhibition of PDE3A (679 to 1087 residues) (unknown origin) using [3H]-cAMP substrate incubated for 15 mins by liquid scintillation counting method relative to control
Homo sapiens [24] = organism: Homo sapiens; experiment: Anti-pulmonary fibrosis activity in human HLF assessed as reduction in TGF-beta-induced myofibroblast differentiation by measuring reduction in alpha-SMA protein expression incubated for 48 hrs by Western blot analysis; assay type: functional
[25] = Half life in Sprague-Dawley rat at 2.5 mg/kg, iv; assay type: ADME, organism-based; settings: in vivo
[26] = target: High affinity cGMP-specific 3',5'-cyclic phosphodiesterase 9A (Homo sapiens, UniProt O76083); experiment: Inhibition of PDE9A2 (181 to 506 residues) (unknown origin) using [3H]-cGMP substrate incubated for 15 mins by liquid scintillation counting method relative to control
[27] = Tmax in Sprague-Dawley rat at 5 mg/kg, po; assay type: ADME, organism-based; settings: in vivo
[28] = target: cAMP and cAMP-inhibited cGMP 3',5'-cyclic phosphodiesterase 10A (Homo sapiens, UniProt Q9Y233); experiment: Inhibition of PDE10A (449 to 770 residues) (unknown origin) using [3H]-cAMP substrate incubated for 15 mins by liquid scintillation counting method relative to control
[29] = target: 3',5'-cyclic-AMP phosphodiesterase 4D (Homo sapiens, UniProt Q08499); experiment: Inhibition of PDE4D2 (86 to 413 residues) (unknown origin) using [3H]-cAMP substrate incubated for 15 mins by liquid scintillation counting method relative to control
[30] = AUC (0 to t) in Sprague-Dawley rat at 2.5 mg/kg, iv; assay type: ADME, organism-based; settings: in vivo
[31] = Cmax in Sprague-Dawley rat at 5 mg/kg, po; assay type: ADME, organism-based; parameters: dose 5 mg/kg, route oral; settings: in vivo

Cytochrome P450 3A4, sequence (P08684 whole entry): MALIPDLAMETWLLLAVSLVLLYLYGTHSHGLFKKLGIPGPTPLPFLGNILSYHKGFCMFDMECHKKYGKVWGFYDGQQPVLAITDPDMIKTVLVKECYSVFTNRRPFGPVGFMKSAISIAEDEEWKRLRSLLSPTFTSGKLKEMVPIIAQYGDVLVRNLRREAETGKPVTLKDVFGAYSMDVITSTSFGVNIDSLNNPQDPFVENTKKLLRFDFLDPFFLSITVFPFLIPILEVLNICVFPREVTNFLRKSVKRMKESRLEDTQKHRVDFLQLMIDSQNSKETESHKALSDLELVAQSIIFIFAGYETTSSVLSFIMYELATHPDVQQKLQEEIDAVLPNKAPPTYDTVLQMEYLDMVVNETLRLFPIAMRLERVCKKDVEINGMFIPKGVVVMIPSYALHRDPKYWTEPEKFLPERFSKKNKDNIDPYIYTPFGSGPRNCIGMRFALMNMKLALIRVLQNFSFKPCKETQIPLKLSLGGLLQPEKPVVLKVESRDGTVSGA
Voltage-gated inwardly rectifying potassium channel KCNH2, sequence (Q12809 whole entry): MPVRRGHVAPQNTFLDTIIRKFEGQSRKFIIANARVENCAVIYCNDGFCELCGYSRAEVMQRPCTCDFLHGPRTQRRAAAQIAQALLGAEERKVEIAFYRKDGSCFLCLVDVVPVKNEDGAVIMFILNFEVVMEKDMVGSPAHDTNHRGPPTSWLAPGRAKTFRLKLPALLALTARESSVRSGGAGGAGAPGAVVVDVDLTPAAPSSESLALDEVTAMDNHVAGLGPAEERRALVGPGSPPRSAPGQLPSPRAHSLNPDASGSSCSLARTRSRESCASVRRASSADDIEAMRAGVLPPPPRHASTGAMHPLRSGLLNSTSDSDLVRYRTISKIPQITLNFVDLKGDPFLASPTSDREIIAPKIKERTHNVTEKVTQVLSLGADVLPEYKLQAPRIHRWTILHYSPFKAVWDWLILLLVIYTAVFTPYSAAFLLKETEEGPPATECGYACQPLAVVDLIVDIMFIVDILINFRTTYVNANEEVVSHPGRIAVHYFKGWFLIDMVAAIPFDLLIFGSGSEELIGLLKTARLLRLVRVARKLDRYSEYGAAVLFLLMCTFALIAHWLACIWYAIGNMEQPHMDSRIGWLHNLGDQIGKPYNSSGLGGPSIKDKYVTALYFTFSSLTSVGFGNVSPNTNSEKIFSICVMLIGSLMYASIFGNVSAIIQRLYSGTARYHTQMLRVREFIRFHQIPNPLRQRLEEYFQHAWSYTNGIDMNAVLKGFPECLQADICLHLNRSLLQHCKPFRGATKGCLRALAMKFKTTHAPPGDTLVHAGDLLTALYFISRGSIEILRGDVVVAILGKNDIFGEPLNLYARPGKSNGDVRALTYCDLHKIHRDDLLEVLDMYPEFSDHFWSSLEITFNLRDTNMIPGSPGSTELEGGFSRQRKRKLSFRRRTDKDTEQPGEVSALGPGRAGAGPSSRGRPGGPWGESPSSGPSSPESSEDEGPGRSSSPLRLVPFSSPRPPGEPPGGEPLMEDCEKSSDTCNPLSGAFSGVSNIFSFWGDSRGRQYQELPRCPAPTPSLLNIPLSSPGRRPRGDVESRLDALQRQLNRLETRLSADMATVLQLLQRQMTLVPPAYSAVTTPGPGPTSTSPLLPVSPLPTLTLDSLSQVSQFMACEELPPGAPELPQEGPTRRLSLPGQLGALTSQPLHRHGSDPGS
High affinity 3',5'-cyclic-AMP phosphodiesterase 7A, sequence (Q13946 whole entry, the tested form may be a part): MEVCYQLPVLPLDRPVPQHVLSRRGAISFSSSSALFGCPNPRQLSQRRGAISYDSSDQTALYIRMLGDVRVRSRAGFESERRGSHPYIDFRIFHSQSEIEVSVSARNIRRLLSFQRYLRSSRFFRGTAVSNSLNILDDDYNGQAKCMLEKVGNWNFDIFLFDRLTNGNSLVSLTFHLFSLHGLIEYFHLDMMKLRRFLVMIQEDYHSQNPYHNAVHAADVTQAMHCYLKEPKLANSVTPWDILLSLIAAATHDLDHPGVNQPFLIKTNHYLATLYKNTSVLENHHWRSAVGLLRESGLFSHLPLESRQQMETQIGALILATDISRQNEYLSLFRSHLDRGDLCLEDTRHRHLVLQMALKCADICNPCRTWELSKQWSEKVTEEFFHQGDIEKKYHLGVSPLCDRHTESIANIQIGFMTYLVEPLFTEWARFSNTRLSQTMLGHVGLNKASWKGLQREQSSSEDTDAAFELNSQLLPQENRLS
cAMP and cAMP-inhibited cGMP 3',5'-cyclic phosphodiesterase 10A, sequence (Q9Y233 whole entry, the tested form may be a part): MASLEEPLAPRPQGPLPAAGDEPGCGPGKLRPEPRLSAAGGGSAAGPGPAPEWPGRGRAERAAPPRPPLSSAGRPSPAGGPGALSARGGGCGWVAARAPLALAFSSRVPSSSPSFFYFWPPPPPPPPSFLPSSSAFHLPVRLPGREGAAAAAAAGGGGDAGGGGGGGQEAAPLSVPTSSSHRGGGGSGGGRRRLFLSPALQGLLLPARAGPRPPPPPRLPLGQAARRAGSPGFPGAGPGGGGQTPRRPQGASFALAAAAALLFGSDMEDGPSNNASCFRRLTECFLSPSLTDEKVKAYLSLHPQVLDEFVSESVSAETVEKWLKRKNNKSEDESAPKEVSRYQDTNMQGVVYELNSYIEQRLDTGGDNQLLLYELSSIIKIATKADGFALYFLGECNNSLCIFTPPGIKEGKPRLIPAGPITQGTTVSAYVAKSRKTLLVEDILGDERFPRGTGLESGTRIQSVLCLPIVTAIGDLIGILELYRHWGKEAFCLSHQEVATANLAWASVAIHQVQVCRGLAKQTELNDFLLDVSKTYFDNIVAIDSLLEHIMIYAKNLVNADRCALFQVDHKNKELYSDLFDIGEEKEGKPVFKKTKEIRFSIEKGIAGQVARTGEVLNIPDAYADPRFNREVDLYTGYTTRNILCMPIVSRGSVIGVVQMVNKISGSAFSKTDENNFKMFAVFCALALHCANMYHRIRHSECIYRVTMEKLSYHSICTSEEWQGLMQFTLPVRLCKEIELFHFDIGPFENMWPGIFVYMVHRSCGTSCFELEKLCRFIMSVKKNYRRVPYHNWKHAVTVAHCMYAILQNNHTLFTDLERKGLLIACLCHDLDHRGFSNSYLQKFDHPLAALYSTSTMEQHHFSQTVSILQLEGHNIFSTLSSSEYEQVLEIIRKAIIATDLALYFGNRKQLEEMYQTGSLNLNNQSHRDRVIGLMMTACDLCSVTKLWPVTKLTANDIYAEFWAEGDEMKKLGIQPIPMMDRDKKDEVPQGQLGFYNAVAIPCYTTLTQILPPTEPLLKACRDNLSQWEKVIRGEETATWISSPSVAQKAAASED
3',5'-cyclic-AMP phosphodiesterase 4D, sequence (Q08499 whole entry, the tested form may be a part): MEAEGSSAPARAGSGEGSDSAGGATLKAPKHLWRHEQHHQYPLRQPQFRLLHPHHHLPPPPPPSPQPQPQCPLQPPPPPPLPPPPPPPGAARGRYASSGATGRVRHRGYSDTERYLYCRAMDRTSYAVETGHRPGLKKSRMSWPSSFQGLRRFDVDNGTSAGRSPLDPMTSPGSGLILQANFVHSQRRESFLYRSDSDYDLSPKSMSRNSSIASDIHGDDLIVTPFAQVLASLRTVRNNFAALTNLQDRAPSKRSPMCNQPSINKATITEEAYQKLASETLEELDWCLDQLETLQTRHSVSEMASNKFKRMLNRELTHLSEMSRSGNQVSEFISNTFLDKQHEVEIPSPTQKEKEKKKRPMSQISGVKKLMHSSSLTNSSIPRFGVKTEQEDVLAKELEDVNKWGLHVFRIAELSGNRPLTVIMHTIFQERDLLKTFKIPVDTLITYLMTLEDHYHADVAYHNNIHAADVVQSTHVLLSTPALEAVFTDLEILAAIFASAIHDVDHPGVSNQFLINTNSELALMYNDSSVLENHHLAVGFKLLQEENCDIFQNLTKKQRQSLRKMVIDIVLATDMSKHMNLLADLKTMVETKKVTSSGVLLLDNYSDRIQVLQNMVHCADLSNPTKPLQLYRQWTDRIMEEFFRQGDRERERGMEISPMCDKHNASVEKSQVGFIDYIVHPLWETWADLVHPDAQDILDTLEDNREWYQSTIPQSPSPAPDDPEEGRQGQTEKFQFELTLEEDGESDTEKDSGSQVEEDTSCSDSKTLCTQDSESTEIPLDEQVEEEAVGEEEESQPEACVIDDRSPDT
High affinity cGMP-specific 3',5'-cyclic phosphodiesterase 9A, sequence (O76083 whole entry, the tested form may be a part): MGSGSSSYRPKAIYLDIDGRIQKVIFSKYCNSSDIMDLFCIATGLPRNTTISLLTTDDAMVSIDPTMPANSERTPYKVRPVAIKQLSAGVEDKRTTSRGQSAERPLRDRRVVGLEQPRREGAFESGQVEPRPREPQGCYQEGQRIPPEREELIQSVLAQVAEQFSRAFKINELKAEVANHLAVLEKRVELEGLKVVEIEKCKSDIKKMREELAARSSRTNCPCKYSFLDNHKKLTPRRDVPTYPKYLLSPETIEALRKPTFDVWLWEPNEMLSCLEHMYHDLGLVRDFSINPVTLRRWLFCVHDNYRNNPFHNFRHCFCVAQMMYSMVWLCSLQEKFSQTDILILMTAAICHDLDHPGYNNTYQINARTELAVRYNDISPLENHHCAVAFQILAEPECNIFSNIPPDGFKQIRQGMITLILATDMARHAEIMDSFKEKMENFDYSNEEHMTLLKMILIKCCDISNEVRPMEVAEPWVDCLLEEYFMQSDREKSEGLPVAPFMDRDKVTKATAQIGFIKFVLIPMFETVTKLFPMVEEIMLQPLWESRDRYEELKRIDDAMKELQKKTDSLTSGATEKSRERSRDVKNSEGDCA

With `C[C@@H](Nc1nc2c(cnn2C(C)(C)C)c(=O)n1Cc1ccc(F)cc1)c1ccc(Cl)cc1` the half-life [1] was 3.7 h, the MRT last [2] was 6.88 h and the IC50 [3] was 0.37 µM. The AUC(0-t) [4] was 1300 ng·h/mL, the MRT last [5] was 5.81 h and the Activity (Homo sapiens [6]) was “Dose-dependent effect”. For the same compound, the IC50 [7] was 11 µM, the Activity (Rattus norvegicus [8]) was “Active” and the AUC(0-inf) [9] was 1320 ng·h/mL. The bioavailability [10] was 34%, the IC50 [11] was > 10 µM and the IC50 (Cytochrome P450 2D6) was > 25 µM. For the same compound, the Activity (Rattus norvegicus [12]) was “Active”, the AUC(0-inf) [13] was 2100 ng·h/mL and the Activity (Rattus norvegicus [14]) was “Active”. The IC50 (Cytochrome P450 1A2) was > 25 µM, the IC50 [15] was 2.02 µM and the Activity (Rattus norvegicus [16]) was “Active”. The solubility [17] was 22 µg/mL (≈ 48.5 µM), the IC50 (Cytochrome P450 3A4) was > 25 µM and the Activity (Rattus norvegicus [18]) was “Active”. For the same compound, the half-life [19] was 0.262 h, the Activity (Rattus norvegicus [20]) was “Active” and the solubility [21] was 16 µg/mL (≈ 35.2 µM). The IC50 (Cytochrome P450 2C9) was 6.6 µM, the Fu [22] was 0.1% and the IC50 [23] was > 10 µM. The Activity (Homo sapiens [24]) was “Dose-dependent effect”, the half-life [25] was 5.5 h and the IC50 [26] was > 10 µM. The Tmax [27] was 4 h, the IC50 [28] was 1.77 µM and the IC50 [29] was 0.699 µM. The AUC(0-t) [30] was 1930 ng·h/mL and the Cmax [31] was 169 ng/mL.
